Patent US20040241839A1, “Culturing neural stem cells” (priority 2003, published 2004)
Read-outs that look alike come from different tables or passages of the source.

How the values were obtained:
[1] = system: dissociates of postnatal C57/BL mouse forebrain (neurospheres); assay: Formation and growth of neurospheres in serum-free semi-solid methylcellulose medium with growth factors; type: cell-based
Experimental: Preparation of single-cell suspensions and cloning in MC. Dissociates of postnatal (5-7 days old) C57/BL mouse forebrain (subependymal zone and hippocampus) were used to generate suspended clones under anchorage and serum withdrawal in semi-solid methyl cellulose (MC). The procedures were performed as previously described Kukekov et al., Glia 21:399-407, 1997; and Kukekov et al., Exp Neurol, 156:333-344, 1999, with some additional modifications. Brain samples (approximately 10 mm^3) were minced, transferred to a beaker containing a solution of 0.25% trypsin in 0.1 mM EDTA (mixture 4:1), and slowly stirred on a magnetic plate at roomm temperature for 15 minutes. After trituration through a plastic 5 ml pipette and a fire-polished Pasteur pipette, the dissociate was washed (5-8 times in 5 ml of medium) to eliminate cellular debris.
The resultant suspension was filtered through sterile gauze, and verified to contain only single cells which were counted with a hemocytometer. Finally, cells were resuspended in 0.8% MC-based medium (NeuroCult medium, Cat. #03237, StemCell Technologies, Vancouver, BC) and plated at a clonal density (i.e., about […]) in 6-well plates coated with a non-adhesive substrate, i.e., poly 2-hydroxyethyl methacrylate (poly-HEME, Sigma) according to the manufacturer's instructions. Cells were maintained in a 37° C. incubator with 95% air, 5% CO2, and 100% humidity. Clones became visible under an inverted phase microscope approximately one week after plating.
Morphometric analysis of neurospheres. The number and diameters of neurospheres was assessed using an inverted phase microscope equipped with a size covering net. The number of neurospheres in each experimental group was normalized to the protein content. Aliquots of suspensions were removed for protein measurement using Pierce BCA protein Kit (Pierce, Rockford, Ill.) according to the manufacturer's instructions. Measurements were taken following one, two and three weeks of growth in vitro.
Using the above-described methods, dissociates of postnatal(5-7 days old) C57/BL mouse forebrain, (subependymal zone and hippocampus) were used to generate suspended clones under anchorage and serum withdrawal in semi-solid MC (MC-clones) Equal amounts of dissociates were placed in serum-free DMEM/F12, 1:1 medium supplemented with 0.8% MC and insulin (NeuroCult medium, Cat. #03237, StemCell Technologies, Vancouver, BC) in the presence of (i) 10 ng/ml EGF plus 10 ng/ml FGF2, (ii) 10 μM LPA alone and (iii) EGF+FGF2 in combination with LPA. Growth factors, i.e., EGF, FGF2 were obtained from Peprotech, Inc., and LPA was obtained from LPA-Avanti Polar Lipids, Inc. Freshly prepared aliquots of EGF and FGF2 were added every 3 days during a 21 day interval of clone (neurosphere) generation. The numbers and diameters of neurospheres were measured at the end of the third week in vitro.
Using methods described above, cells were recovered after complete dissociation of mouse forebrain to single cells and plated at a density of ˜10^4 cells/well in serum free semi-solid methylcellulose medium containing growth factors, ie., 10 μM oleoyl (C18:1) LPA, or 10 ng/ml each of EGF and FGF2. […] Neurosphere growth persisted during the second week in semi-solid medium continuously supplemented with LPA or EGF+FGF2 (FIG. 1B).

[2] = system: neurospheres (AC133 and Sca-1 antigens); assay: Immunocytochemical staining of neurospheres grown in the presence of LPA; type: cell-based, mouse
Experimental: Neurospheres were grown in suspension in the presence of LPA for 18 days, then transferred onto cover slips coated with laminin and poly-L-ornithine. The neurospheres attached within 6 hours and were allowed to spread and differentiate for an additional 48 hours. Cover slips were then fixed and processed for immunostaining. Antibodies used in these studies included antibodies against AC133 antigen (Miltenyi Biotech) and Sca-1 antigen (BD Pharmingen), against LPA receptors LPA1, LPA2 and LPA3 Exalpha Biologicals Inc., Antibody Solutions), βIII-tubulin (ovance, Inc.), and nestin (Chemicon, Inc.), CNPase (Sigma). To study the effect of LPA on differentiation of neurospheres, in some cases double immunostaining of LPA receptors and neuronal markers was performed. Results were analyzed using confocal microscopy. Visualization of the proteins was performed by two-color fluorescent dye labeling (i.e., red-Texas Red, green-Alexa Green) and subsequent analysis in laser confocal microscope appropriately equipped with filters of different wavelengths. The images were taken at the same gain setting for each filter within one experimental set. As an example, referring to FIG. 2A, B, the presence of AC133 antigen was detected by red fluorescence and that of Sca-1 by green fluorescence using separate wavelength visualization. AC133/Sca-1 co-localization was detected as yellow fluorescence using dual wavelength visualization (shown in right column of FIG. 2).
Neurospheres were grown using methods described above in the presence of LPA in semi-solid medium for two weeks. Aliquots of neurospheres were then removed and placed onto glass cover slips coated with laminin/poly-L-ornithine. Fresh medium without methyl cellulose and FBS (10% final) were added to initiate neurosphere adherence to the cover slip surface. The neurospheres became completely attached within 4 to 6 hours after transfer. […]
Cover slips were then fixed, stained with antibodies against AC133, Sca-1, LPA1, LPA2 and LPA3 receptors and analyzed using immunofluorescent techniques, as described above. […]

[3] = system: LPA-induced formation of neurospheres; conditions: for size of neurospheres generated by LPA: 2 weeks (FIG. 1C); for numbers of neurospheres formed: 2 weeks (FIG. 1D)
Experimental: In (C, D), neurospheres were maintained in culture for 2 weeks in the presence of LPA alone or LPA plus 1 μM or 50 μM DGPP. The number/field and the size of at least 200 neurospheres formed at 2 weeks were counted. The results are presented as mean +SEM of three independent experiments from four different neurosphere preparations. Unpaired Student's t-test was used to assess significance of the mean difference, and F test was used to compare variances.
To examine the potential involvement of LPA receptors in the LPA-induced formation of neurospheres, the effect of DGPP at low concentration (i.e., 1 μM) and high concentration (i.e., 50 μM) was compared.

[4] = molecular target: T1, LPA3 receptor (Homo sapiens, UniProt Q9UBY5); conditions: cited from earlier work
T1 sequence (Q9UBY5 1-353): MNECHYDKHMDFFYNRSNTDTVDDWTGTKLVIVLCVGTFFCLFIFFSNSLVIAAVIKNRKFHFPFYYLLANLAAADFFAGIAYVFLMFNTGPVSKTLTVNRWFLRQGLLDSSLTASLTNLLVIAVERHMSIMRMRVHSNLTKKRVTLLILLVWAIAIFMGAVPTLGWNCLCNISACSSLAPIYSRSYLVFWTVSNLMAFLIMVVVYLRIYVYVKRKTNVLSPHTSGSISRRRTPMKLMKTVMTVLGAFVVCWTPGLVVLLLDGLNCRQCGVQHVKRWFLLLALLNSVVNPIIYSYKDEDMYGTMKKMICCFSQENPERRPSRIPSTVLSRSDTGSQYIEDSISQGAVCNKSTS

[5] = molecular target: LPA1 receptor (Homo sapiens, UniProt Q92633); conditions: high concentration; cited from earlier work
[6] = 10 μM LPA or 10 ng/ml each EGF and FGF2
[7] = grown two weeks in LPA, attached to cover slips

LPA1 receptor, sequence (Q92633 whole entry): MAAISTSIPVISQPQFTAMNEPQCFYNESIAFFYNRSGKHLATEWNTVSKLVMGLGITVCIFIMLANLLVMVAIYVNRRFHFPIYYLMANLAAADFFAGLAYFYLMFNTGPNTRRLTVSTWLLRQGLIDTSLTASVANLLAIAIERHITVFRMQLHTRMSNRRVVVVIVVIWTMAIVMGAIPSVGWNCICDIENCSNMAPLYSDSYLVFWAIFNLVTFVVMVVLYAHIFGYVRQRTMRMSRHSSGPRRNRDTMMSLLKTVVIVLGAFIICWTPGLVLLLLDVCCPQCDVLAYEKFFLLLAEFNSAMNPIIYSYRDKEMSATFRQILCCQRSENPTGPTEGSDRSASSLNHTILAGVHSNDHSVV

Compound | diameter of neurospheres, Maximum [1, 6] | diameter of neurospheres, Median [1, 6] | diameter of neurospheres, Minimum [1, 6] | diameter of neurospheres, Mode [1, 6] | number of neurospheres per field (Count) [1, 6] | diameter of neurospheres, Mean ([1]; 10 μM LPA or 10 ng/ml each EGF and FGF2, serum-free methylcellulose medium) | time for which neurosphere development was sustained ([1]; continuous supplementation with growth factor) | formation of neurospheres ([1]; first week in culture, 10 μM oleoyl LPA or 10 ng/ml each EGF and FGF2) | Sca-1 antigen and AC133 in the residual core of neurospheres grown attached ([2]; grown attached in the presence of the growth factor) | co-localization of AC133 and Sca-1 throughout the neurospheres [2, 7] | expression of AC133 and Sca-1 antigens in neurospheres [2, 7] | size of neurospheres generated by LPA ([3]; DGPP 1 μM plus LPA) | numbers of neurospheres formed ([3]; DGPP 1 μM plus LPA) | size of neurospheres generated by LPA ([3]; DGPP 50 μM plus LPA) | numbers of neurospheres formed ([3]; DGPP 50 μM plus LPA, p=0.0056) | LPA-induced formation and growth of neurospheres ([3]; concentration not given) | LPA activation of LPA3 receptor ([4]; high concentration) | effect on LPA3 receptor ([4]; low concentration) | LPA activation of LPA1 receptor [5]
1 -acyl-2-hydroxy-sn-glycero-3-phosphate [LPA] | 204 | 72.25 | 14.1 | 55.4 | 220 | 79.54 μm | up to 3 months | formed distinguishable neurospheres | still detected | ~100% | expressed both AC133 and Sca-1 antigens |  |  |  |  |  |  |  | 
CCCCCCCC(=O)OC[C@H](COP(=O)(O)OP(=O)(O)O)OC(=O)CCCCCCC [DGPP, diacyl-glycerol pyrophosphate] |  |  |  |  |  |  |  |  |  |  |  | significantly reduced | not | significantly reduced | decreased considerably | specifically inhibited | blocks | preferentially inhibit | blocks
